pKi: −log10 of the molar value.

Type in all cases: biochemical
In one experiment the target is T1, GST A2-2 (Homo sapiens, UniProt P09210).
T1 construct: gene GSTA2; homodimer purified from human liver cytosol
T1 sequence (P09210 2-222): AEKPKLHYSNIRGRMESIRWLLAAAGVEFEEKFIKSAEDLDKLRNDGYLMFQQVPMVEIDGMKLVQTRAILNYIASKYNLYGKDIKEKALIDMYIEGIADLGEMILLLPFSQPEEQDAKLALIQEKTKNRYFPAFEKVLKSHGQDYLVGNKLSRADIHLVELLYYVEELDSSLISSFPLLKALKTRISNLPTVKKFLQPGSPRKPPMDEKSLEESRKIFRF
Nature of the experiment: inhibition of CDNB conjugation activity (Dixon and Hanes plots).

Another experiment deals with T2, GST P1-1 (Homo sapiens, UniProt P09211).
T2 construct: gene GSTP1; homodimer purified from human kidney cytosol
Nature of the experiment: inhibition of CDNB conjugation activity.

A further experiment deals with T3, GST A1-1 (Homo sapiens, UniProt P08263).
T3 construct: gene GSTA1; homodimer purified from human liver cytosol
T3 sequence (P08263 2-222): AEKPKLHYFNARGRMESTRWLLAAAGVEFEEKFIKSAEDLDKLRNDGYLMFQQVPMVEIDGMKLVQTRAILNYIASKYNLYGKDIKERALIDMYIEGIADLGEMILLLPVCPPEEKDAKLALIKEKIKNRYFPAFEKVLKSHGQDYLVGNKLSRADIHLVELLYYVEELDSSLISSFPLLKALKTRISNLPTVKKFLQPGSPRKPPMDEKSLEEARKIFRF
Nature of the experiment: inhibition of CDNB conjugation activity (Dixon and Hanes plots). From the text: inhibition of CDNB conjugation activity (Dixon and Hanes plots) on GST A1-1 | CHBSG was a pure competitive inhibitor of the activity of GSTs A1-1 and A2-2 towards 1-chloro-2,4-dinitrobenzene

Another experiment has as its target T4, GST M1a-1a (Homo sapiens, UniProt P09488).
T4 construct: gene GSTM1; homodimer purified from human liver cytosol
T4 sequence (P09488 2-218): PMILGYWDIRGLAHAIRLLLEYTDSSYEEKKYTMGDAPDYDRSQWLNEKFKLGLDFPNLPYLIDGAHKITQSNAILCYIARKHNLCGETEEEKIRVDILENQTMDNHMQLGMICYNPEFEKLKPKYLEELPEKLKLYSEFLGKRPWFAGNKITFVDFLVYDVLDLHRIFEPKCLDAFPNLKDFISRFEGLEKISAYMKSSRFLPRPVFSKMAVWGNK
The experiment can be described thus: inhibition of CDNB conjugation activity.

T2 sequence (P09211 2-210): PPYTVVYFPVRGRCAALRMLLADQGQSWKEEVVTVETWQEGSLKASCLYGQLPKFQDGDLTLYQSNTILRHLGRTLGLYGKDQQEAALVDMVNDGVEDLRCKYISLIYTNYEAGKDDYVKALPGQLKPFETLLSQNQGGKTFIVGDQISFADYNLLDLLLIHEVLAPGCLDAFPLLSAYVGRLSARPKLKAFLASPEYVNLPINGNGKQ

Consider `N[C@@H](CCC(=O)N[C@@H](CSCCN(CCCl)c1ccc(CCCC(=O)O)cc1)C(=O)NCC(=O)O)C(=O)O` [CHBSG], for which the pKi (commonly the Ki on a negative log10 scale, so that one unit is a factor of ten) was 5.92 at GST A2-2 and 5.89 on GST A1-1. Besides, the “inhibition of CDNB conjugation activity” value against GST P1-1 and at GST M1a-1a was over 10 µM throughout.
